Tested on: 171881-019-R-J1-PDC complex spheroid viability
Experiment: Anticancer human tumor 171881-019-R-J1-PDC patient-derived invasive breast carcinoma cell line growth inhibition
Conditions: for IC50: curve of first compound; for viability, T/C: stronger effect = lower value
Source text: Multicellular complex tumor spheroid response to LSD1 Inhibitor Iadademstat in combination with a variety of drugs and investigational agents in selected tumor cell lines
The current study was undertaken to assess response to LSD1 inhibitors in combination with standard-of-care drugs and investigational agents in solid tumor complex spheroid models as well as in the K-562 leukemia. Complex spheroids include a stromal component modeled by human endothelial cells (HUVEC) and fibroblasts modeled by human mesenchymal stem cells (MSCs). The concentration ranges selected for each drug and investigational agent were based upon clinically achievable concentrations if the clinical Cmax of the agent was known.
Compounds. The drugs and investigational agents used in this study are listed on Table 1. All of the agents used, including staurosporine (NSC755774) and gemcitabine (NSC613327), were obtained from the Developmental Therapeutics Program, NCI. FDA-approved anticancer drugs are available from the NCI at http://dtp.nci.nih.gov/branches/dscb/oncology_drugset_explanation.html. Drugs and investigational agents were >95% pure by proton nuclear magnetic resonance (NMR) and liquid chromatography/mass spectrometry (LC/MS). Stock solutions were prepared at 400x in DMSO, stored at -70 degrees C, and diluted in fresh medium prior to their use. The final concentration of DMSO in cell culture wells never exceeded 0.25% (v/v). The FDA-approved anticancer drug set is available from the Developmental Therapeutics Program at https://dtp.cancer.gov/organization/dscb/obtaining/available_plates.htm. All drugs and investigational agents were tested over a range starting from a high concentration at or near the clinical Cmax and decreasing in half-log increments. If the clinical Cmax for an agent had not been determined, the highest concentration tested was 10 microM.
Cell Lines. The patient-derived cancer cell (PDC) lines: 292921-168-R-J2-PDC, K24384-001-R-PDC, and 521955-158-R2-J5-PDC pancreatic carcinomas, 556581-035-R-J1 ovarian carcinoma, 324938-238-R-J1-PDC, 855422-203-R-J1-PDC and 883617-216-R-J1-PDC urothelial bladder carcinomas, 743489-274-T-PDC renal cell carcinoma, 138582-R-J1 Merkel cell tumor, K60290-347-R-J1 and K57222-313-R-J1-PDC glioblastomas, 653999-131-R-J2-PDC, LG0703-F948-PDC, and 349418-098-R-PDC non-small cell lung carcinomas, 885512-296-R-J2-PDC, 171881-019-R-J1-PDC breast carcinomas and 186277-243-T-J2-PDC and 233499-124-R-J2-PDC colon carcinomas were obtained from the NCI Patient-Derived Models Repository (PDMR, https://pdmr.cancer.gov). The established cell lines NCI/ADR-RES (RRID:CVCL_14520 and OVCAR-5 (RRID:CVCL_1628) ovarian carcinomas, 786-O (RRID:CVCL_1051) and A498 (RRID:CVCL_A498) renal cell carcinoma, NCI-H211 (ATCC, cat. CRL-5824; RRID:CVCL_1529), NCI-H196 (ATCC, cat. CRL-5823, RRID:CVCL_1509), SW 1271 (ATCC, cat. CRL-2177, RRID:CVCL_1716) and NCI-H1876 (ATCC, cat. CRL-5902, RRID:CVCL_1503) small cell lung carcinomas, MDA-MB-231 (RRID:CVCL_0062) and MDA-MB-468 (RRID:CVCL_0419)breast carcinomas (10-12). Pooled donor human umbilical vein endothelial cells (HUVEC, Lonza, cat. CC-2519) and human mesenchymal stem cells (hMSC, Lonza, cat. PT-2501) were purchased from Lonza (Walkersville, MD).
Cell Culture. All cells were maintained in an incubator at 37 degrees C and 5% CO2 with 95% humidity. The PDC lines were cultured according to standard operating procedures established by the NCI PDMR (https://pdmr.cancer.gov). Briefly all PDCs were thawed and cultured in Matrigel-coated flasks prepared with a working solution of 1X Ham's F-12 nutrient mix, without supplementation (Invitrogen, Waltham, MA, cat. 11765054), 100 U/mL penicillin-streptomycin (Invitrogen, cat. 15140122), and 2.5% Matrigel (Corning Inc., Corning, NY, cat. 354248) for the first three passages. […]

[1] = second compound 0.1 µM, first compound 0.00949 µM
[2] = second compound 0.1 µM, first compound 0.03 µM
[3] = second compound 0.1 µM, first compound 0.0949 µM
[4] = second compound 0.1 µM, first compound 0.3 µM
[5] = second compound 0.1 µM, first compound 0.949 µM
[6] = second compound 0.1 µM, first compound 3 µM
[7] = second compound 0.316 µM, first compound 0.00949 µM
[8] = second compound 0.316 µM, first compound 0.03 µM
[9] = second compound 0.316 µM, first compound 0.0949 µM
[10] = second compound 0.316 µM, first compound 0.3 µM
[11] = second compound 0.316 µM, first compound 0.949 µM
[12] = second compound 0.316 µM, first compound 3 µM
[13] = second compound 1 µM, first compound 0.00949 µM
[14] = second compound 1 µM, first compound 0.03 µM
[15] = second compound 1 µM, first compound 0.0949 µM
[16] = second compound 1 µM, first compound 0.3 µM
[17] = second compound 1 µM, first compound 0.949 µM
[18] = second compound 1 µM, first compound 3 µM
[19] = second compound 3.16 µM, first compound 0.00949 µM
[20] = second compound 3.16 µM, first compound 0.03 µM
[21] = second compound 3.16 µM, first compound 0.0949 µM
[22] = second compound 3.16 µM, first compound 0.3 µM
[23] = second compound 3.16 µM, first compound 0.949 µM
[24] = second compound 3.16 µM, first compound 3 µM
[25] = second compound 10 µM, first compound 0.00949 µM
[26] = second compound 10 µM, first compound 0.03 µM
[27] = second compound 10 µM, first compound 0.0949 µM
[28] = second compound 10 µM, first compound 0.3 µM
[29] = second compound 10 µM, first compound 0.949 µM
[30] = second compound 10 µM, first compound 3 µM
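Note: spheroids exposed to agents for 7 days after 3 days growth.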

Molecule `Nc1ccccc1NC(=O)c1ccc(CNC(=O)OCc2cccnc2)cc1` + NC1CCC(NC2CC2c2ccccc2)CC1 has an IC50 (second compound 0.1 µM) of 263 nM, an IC50 (second compound 0.316 µM) of 252 nM and an IC50 (second compound 1 µM) of 277 nM. The IC50 (second compound 3.16 µM) was 288 nM, the IC50 (second compound 10 µM) was 325 nM and the viability, T/C [1] was 86.6%. For the same molecule, the viability, T/C [2] was 85.5%, the viability, T/C [3] was 117% and the viability, T/C [4] was 43.9%. It also gave a viability, T/C [5] of 2.1%, a viability, T/C [6] of 0.32% and a viability, T/C [7] of 89.2%. For the same molecule, the viability, T/C [8] was 98.6%, the viability, T/C [9] was 119% and the viability, T/C [10] was 40.8%. The viability, T/C [11] was 2.42%, the viability, T/C [12] was 0.34% and the viability, T/C [13] was 91.3%. For the same molecule, the viability, T/C [14] was 104%, the viability, T/C [15] was 116% and the viability, T/C [16] was 46%. It also gave a viability, T/C [17] of 1.97%, a viability, T/C [18] of 0.29% and a viability, T/C [19] of 87.8%. The viability, T/C [20] was 96%, the viability, T/C [21] was 115% and the viability, T/C [22] was 48.1%. It also gave a viability, T/C [23] of 2.3%, a viability, T/C [24] of 0.22% and a viability, T/C [25] of 92.5%. For the same molecule, the viability, T/C [26] was 109%, the viability, T/C [27] was 126% and the viability, T/C [28] was 53.6%. It also gave a viability, T/C [29] of 2.32% and a viability, T/C [30] of 0.27%.
Work on `NS(=O)(=O)OCC1CC(n2ccc3c(NC4CCc5ccccc54)ncnc32)CC1O` (stereo not given) + NC1CC1c1ccc(-c2cccc(O)c2)cc1 yielded an IC50 (second compound 0.1 µM) of 10.3 nM, an IC50 (second compound 0.316 µM) of 11.3 nM and an IC50 (second compound 1 µM) of 10.1 nM. The IC50 (second compound 3.16 µM) was 12.8 nM, the IC50 (second compound 10 µM) was < 9.49 nM and the viability, T/C [1] was 51.1%. The viability, T/C [2] was 36.4%, the viability, T/C [3] was 26.7% and the viability, T/C [4] was 27.4%. It also gave a viability, T/C [5] of 27.1%, a viability, T/C [6] of 23.3% and a viability, T/C [7] of 52.9%. It also gave a viability, T/C [8] of 36.4%, a viability, T/C [9] of 31.3% and a viability, T/C [10] of 28.1%. For the same molecule, the viability, T/C [11] was 31.8%, the viability, T/C [12] was 21.4% and the viability, T/C [13] was 51.3%. For the same molecule, the viability, T/C [14] was 27.4%, the viability, T/C [15] was 27.8% and the viability, T/C [16] was 30%. For the same molecule, the viability, T/C [17] was 27.5%, the viability, T/C [18] was 21.9% and the viability, T/C [19] was 56.5%. It also gave a viability, T/C [20] of 31.2%, a viability, T/C [21] of 26% and a viability, T/C [22] of 24.1%. It also gave a viability, T/C [23] of 26.9%, a viability, T/C [24] of 21.1% and a viability, T/C [25] of 45.1%. For the same molecule, the viability, T/C [26] was 30.6%, the viability, T/C [27] was 27.1% and the viability, T/C [28] was 27.6%. It also gave a viability, T/C [29] of 25.4% and a viability, T/C [30] of 19.5%.
Molecule `CCN(c1cc(-c2ccc(CN3CCOCC3)cc2)cc(C(=O)NCc2c(C)cc(C)[nH]c2=O)c1C)C1CCOCC1` + NC1CC1c1ccc(-c2cccc(O)c2)cc1 has an IC50 (second compound 0.1 µM) of 2130 nM, an IC50 (second compound 0.316 µM) of 2050 nM and an IC50 (second compound 1 µM) of 1840 nM. It also gave an IC50 (second compound 3.16 µM) of 1510 nM, an IC50 (second compound 10 µM) of 1180 nM and a viability, T/C [1] of 102%. It also gave a viability, T/C [2] of 109%, a viability, T/C [3] of 102% and a viability, T/C [4] of 84.8%. It also gave a viability, T/C [5] of 68%, a viability, T/C [6] of 42.7% and a viability, T/C [7] of 102%. It also gave a viability, T/C [8] of 107%, a viability, T/C [9] of 105% and a viability, T/C [10] of 88.4%. For the same molecule, the viability, T/C [11] was 66.8%, the viability, T/C [12] was 42% and the viability, T/C [13] was 99.3%. It also gave a viability, T/C [14] of 108%, a viability, T/C [15] of 96.6% and a viability, T/C [16] of 74.9%. It also gave a viability, T/C [17] of 61%, a viability, T/C [18] of 43% and a viability, T/C [19] of 96%. It also gave a viability, T/C [20] of 91.7%, a viability, T/C [21] of 90.6% and a viability, T/C [22] of 75.2%. For the same molecule, the viability, T/C [23] was 59%, the viability, T/C [24] was 37.6% and the viability, T/C [25] was 78.5%. For the same molecule, the viability, T/C [26] was 77.4%, the viability, T/C [27] was 82.2% and the viability, T/C [28] was 60.2%. The viability, T/C [29] was 55.7% and the viability, T/C [30] was 38.8%.

Reference: PubChem BioAssay AID1918932 (Molecular Pharmacology Branch, DTP, NCI, 2023)
